Source: patent publication US9232798B2, “Pesticidal composition and its use” (SUMITOMO CHEMICAL COMPANY, LIMITED, priority 2010, dated 2016)

Tested on: Rhizoctonia solani
Experiment: Soybean seed treatment test against Rhizoctonia solani in contaminated soil (Test Example)
Format: in vivo, Rhizoctonia solani on soybean (variety: Natto shoryu)
Details: carboxamide compound alone 0.2 g/100 kg of seeds (no fipronil), soybean grown 20 days in soil contaminated by Rhizoctonia solani, from disease severity versus non-treated plot
Experimental: A cyclohexanone solution (100 microL) containing prescribed amount (weight) of a test compound was applied on seeds of soybean (variety: Natto shoryu) (10 g) by using a rotary apparatus for seed treatment (Seed dresser, manufactured by Hans-Ulrich Hege GmbH).
One day after the treatment, plastic pot was filled with soil contaminated by Rhizoctonia solani, and the seeds treated with the test compounds were seeded in the soil and cultivated in a glass-greenhouse for 20 days (hereinafter referred to as “treated plot”).
Thereafter, the presence of disease caused by Rhizoctonia solani in the young plants which germinated from each seed was observed and disease severity was calculated according to the following calculation formula (1).
On the other hand, seeds of soybean which were not treated as above were cultivated in the same way as above (hereinafter referred to as “non-treated plot”) and the disease severity in “non-treated plot” was calculated in the same way as above “treated plot”. On the basis of the above disease severity in “treated plot” and the “non-treated plot”, efficacy in “treated plot” was evaluated according to the following calculation formula (2). […]

Compound: CC1CC(C)(C)c2cccc(NC(=O)c3cn(C)nc3C(F)F)c21 (stereo not shown) [carboxamide compound (1)]
- efficacy (%): 42.1%
